Activity calls are given as the source filed them. No cut-off for these calls is given here.
Columns and labels:
[1] = molecular target: DNA polymerase I (Escherichia coli) (UniProt P00582); assay: Inhibition of Escherichia coli DNA polymerase I
[2] = molecular target: T1, DNA-directed DNA polymerase (Enterobacteria phage T4) (UniProt P04415); assay: Inhibition of Enterobacteria T4 phage DNA polymerase
T1 sequence (whole entry): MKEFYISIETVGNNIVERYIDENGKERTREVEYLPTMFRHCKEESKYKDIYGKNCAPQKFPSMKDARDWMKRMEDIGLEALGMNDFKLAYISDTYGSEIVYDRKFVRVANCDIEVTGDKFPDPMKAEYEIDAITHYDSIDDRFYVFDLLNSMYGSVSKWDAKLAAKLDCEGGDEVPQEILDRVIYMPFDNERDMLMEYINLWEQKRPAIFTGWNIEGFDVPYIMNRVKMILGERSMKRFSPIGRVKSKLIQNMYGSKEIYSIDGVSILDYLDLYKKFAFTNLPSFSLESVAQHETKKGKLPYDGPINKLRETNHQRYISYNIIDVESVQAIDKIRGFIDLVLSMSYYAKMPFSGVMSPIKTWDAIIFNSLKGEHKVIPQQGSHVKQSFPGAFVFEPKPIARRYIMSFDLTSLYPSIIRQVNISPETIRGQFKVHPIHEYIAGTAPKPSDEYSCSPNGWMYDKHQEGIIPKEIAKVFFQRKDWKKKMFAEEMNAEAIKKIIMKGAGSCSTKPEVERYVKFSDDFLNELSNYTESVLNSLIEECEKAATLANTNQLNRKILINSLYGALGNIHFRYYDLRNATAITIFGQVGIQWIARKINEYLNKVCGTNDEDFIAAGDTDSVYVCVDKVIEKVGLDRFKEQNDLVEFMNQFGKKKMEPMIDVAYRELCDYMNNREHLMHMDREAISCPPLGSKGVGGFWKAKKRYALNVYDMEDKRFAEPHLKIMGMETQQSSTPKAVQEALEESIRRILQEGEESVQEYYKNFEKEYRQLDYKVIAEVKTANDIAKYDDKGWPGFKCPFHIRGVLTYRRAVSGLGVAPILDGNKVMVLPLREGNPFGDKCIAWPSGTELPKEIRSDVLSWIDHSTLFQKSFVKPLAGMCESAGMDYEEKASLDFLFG

Plasmodium falciparum [3] = assay: Antiparasitic activity against Plasmodium falciparum NF54 with attB plasmid infected in red blood cells assessed as reduction in parasitemia incubated for 72 hrs; assay type: functional, organism-based, Red blood cell; conditions: NF54, Erythrocyte
Plasmodium falciparum [4] = assay: Inhibition of plasmodium falciparum apicoplast DNA polymerase exonuclease activity using blunt-ended double stranded oligonucleotide with 2-aminopurine at position 1 on 3' end as substrate assessed as exonuclease specific activity at 100 uM (reference value: 2.2 +/- 0.09%)
Plasmodium falciparum [5] = assay: Inhibition of plasmodium falciparum apicoplast DNA polymerase exonuclease activity using blunt-ended double stranded oligonucleotide with 2-aminopurine at position 1 on 3' end as substrate assessed as reduction in exonuclease proofreading activity at 3'-5' direction at 100 uM relative to control
Plasmodium falciparum [6] = assay: Non-competitive inhibition of Plasmodium falciparum apicoplast DNA polymerase assessed as inhibition constant for higher affinity site in presence of various concentrations of dNTPs by molecular beacon assay
Plasmodium falciparum [7] = assay: Competitive inhibition of Plasmodium falciparum apicoplast DNA polymerase assessed as inhibition constant for lower affinity site in presence of various concentrations of dNTPs by molecular beacon assay
Plasmodium falciparum [8] = assay: Non-competitive inhibition of Plasmodium falciparum apicoplast DNA polymerase assessed as inhibition constant for lower affinity site in presence of various concentrations of dNTPs by molecular beacon assay
[9] = Inhibition of plasmodium falciparum apicoplast DNA polymerase exonuclease activity using blunt-ended double stranded oligonucleotide with 2-aminopurine at position 1 on 3' end as substrate assessed as reduction in exonuclease proofreading activity at 3'-5' direction
Plasmodium falciparum [10] = assay: Antiparasitic activity against Plasmodium falciparum NF54 with attB plasmid infected in red blood cells assessed as reduction in parasitemia incubated for 96 hrs in presence of isopentenyl pyrophosphate by flow cytometry analysis; assay type: functional, organism-based; conditions: Red blood cell

DNA polymerase I (Escherichia coli), sequence (P00582 whole entry): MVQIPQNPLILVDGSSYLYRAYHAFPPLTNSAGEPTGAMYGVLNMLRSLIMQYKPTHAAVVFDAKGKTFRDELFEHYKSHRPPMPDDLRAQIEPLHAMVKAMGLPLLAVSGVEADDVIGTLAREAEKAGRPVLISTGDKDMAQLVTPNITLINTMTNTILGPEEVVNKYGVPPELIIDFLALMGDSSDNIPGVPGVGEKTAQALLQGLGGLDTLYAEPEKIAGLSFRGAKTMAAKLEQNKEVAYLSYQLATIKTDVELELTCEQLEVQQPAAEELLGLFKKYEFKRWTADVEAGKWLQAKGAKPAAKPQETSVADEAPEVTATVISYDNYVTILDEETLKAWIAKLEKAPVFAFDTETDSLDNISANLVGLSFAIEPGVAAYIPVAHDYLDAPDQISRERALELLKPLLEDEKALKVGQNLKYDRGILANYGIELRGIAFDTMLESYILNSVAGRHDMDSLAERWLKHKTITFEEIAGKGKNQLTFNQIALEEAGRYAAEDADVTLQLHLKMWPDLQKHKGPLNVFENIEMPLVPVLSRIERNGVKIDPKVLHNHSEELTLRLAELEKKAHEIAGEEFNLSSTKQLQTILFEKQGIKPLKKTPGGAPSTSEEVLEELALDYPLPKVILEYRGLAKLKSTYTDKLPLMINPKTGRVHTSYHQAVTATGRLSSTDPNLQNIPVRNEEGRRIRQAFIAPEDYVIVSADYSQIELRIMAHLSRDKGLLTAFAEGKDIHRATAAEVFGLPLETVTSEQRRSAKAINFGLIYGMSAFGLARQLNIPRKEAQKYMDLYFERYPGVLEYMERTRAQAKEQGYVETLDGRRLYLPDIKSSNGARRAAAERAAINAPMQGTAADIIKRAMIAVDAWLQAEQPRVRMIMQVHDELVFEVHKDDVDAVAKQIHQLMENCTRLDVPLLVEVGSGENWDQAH

Row | Structure (SMILES) | inhibition [1] | inhibition [2] | EC50 (Plasmodium falciparum [3]) [µM] | Activity (Plasmodium falciparum [4]) [U] | inhibition (Plasmodium falciparum [5]) [%] | KiH (Plasmodium falciparum [6]) [µM] | KiH (Plasmodium falciparum [7]) [µM] | KiL (Plasmodium falciparum [8]) [µM] | IC50 [9] [µM] | Activity (Plasmodium falciparum [10])
1 | CC(C)(C)c1ccc(NC(=O)Nc2c3c(nn2-c2cccc(C(F)(F)F)c2)CSC3)cc1 | inactive | inactive | 4.3 | 1.4 | < 50 | 2.17 | 11.9 | – | – | –
2 | Cc1ccc(-n2nc3c(c2NS(=O)(=O)c2ccc(C(C)(C)C)cc2)CSC3)cc1 | inactive | inactive | > 20 | 2.2 | – | – | – | – | – | –
3 | O=C(Nc1c2c(nn1-c1cccc(Cl)c1)COC2)C(F)(F)F | inactive | inactive | > 20 | 2.3 | – | – | – | – | – | –
4 | CC(=O)Nc1c2c(nn1-c1cccc(Cl)c1)COC2 | inactive | inactive | > 20 | 2.2 | – | – | – | – | – | –
5 | O=C(Nc1c2c(nn1-c1cccc(Cl)c1)COC2)c1ccc2ccccc2c1 | inactive | inactive | 8 | 1.8 | – | – | – | – | – | –
6 | CC(C)(C)c1ccc(C(=O)Nc2c3c(nn2-c2cccc(Cl)c2)C[S+]([O-])C3)cc1 (stereo not drawn) | inactive | inactive | 4.8 | 1.9 | – | – | – | – | – | –
7 | CC(C)(C)c1ccc(NC(=O)Nc2c3c(nn2-c2ccc(Cl)cc2)CSC3)cc1 | inactive | inactive | 1 | 2.1 | < 50 | 1.97 | – | 15 | – | –
8 | CC(C)(C)c1ccc(S(=O)(=O)Nc2c3c(nn2-c2cccc(Cl)c2)CSC3)cc1 | inactive | inactive | > 20 | 0.4 | > 90 | – | – | – | 40 | –
9 | Cc1ccc(-n2nc3c(c2NC(=O)Nc2ccc(C(C)(C)C)cc2)CSC3)cc1 | inactive | inactive | 4.5 | 1.8 | < 50 | – | – | – | – | –
10 | CC(C)(C)c1ccc(S(=O)(=O)Nc2c3c(nn2-c2cccc(C(F)(F)F)c2)CSC3)cc1 | inactive | inactive | > 20 | 0.06 | > 90 | – | – | – | – | –
11 | CC(C)(C)c1ccc(S(=O)(=O)Nc2c3c(nn2-c2ccc(Cl)cc2)CSC3)cc1 | inactive | inactive | > 20 | 0.06 | > 90 | – | – | – | 21 | –
12 | CC(C)(C)c1ccc(S(=O)(=O)Nc2c3c(nn2-c2ccc(C(F)(F)F)cc2)CSC3)cc1 | inactive | inactive | > 20 | 0.01 | > 90 | – | – | – | 16 | –
13 | CC(C)(C)c1ccc(NC(=O)Nc2c3c(nn2-c2ccncc2)COC3)cc1 | inactive | inactive | 3.3 | 1.3 | – | – | – | – | – | –
14 | CC(C)(C)c1ccc(NC(=O)Nc2c3c(nn2-c2cnccn2)COC3)cc1 | inactive | inactive | 2.5 | 1.7 | – | – | – | – | – | –
15 | CC(C)(C)C(=O)Nc1c2c(nn1-c1cccc(Cl)c1)COC2 | inactive | inactive | > 20 | 2.6 | – | – | – | – | – | –
16 | CC(C)(C)c1ccc(NC(=O)Nc2c3c(nn2-c2ccc(C(F)(F)F)cc2)CSC3)cc1 | inactive | inactive | 1.2 | 2.1 | < 50 | – | – | – | – | –
17 | CC(C)(C)c1ccc(C(=O)Nc2c3c(nn2-c2ccc(C(F)(F)F)cc2)CSC3)cc1 | inactive | inactive | 4.8 | 2 | < 50 | – | – | – | – | –
18 | CC(C)(C)c1ccc(C(=O)Nc2c3c(nn2-c2cccc(Cl)c2)COC3)cc1 | inactive | inactive | 4.6 | 1.2 | – | – | – | – | – | –
19 | O=C(Nc1c2c(nn1-c1cccc(Cl)c1)COC2)c1ccc(-c2ccccc2)cc1 | inactive | inactive | > 20 | 1.2 | – | – | – | – | – | –
20 | Cc1ccc(-n2nc3c(c2NC(=O)c2ccc(C(C)(C)C)cc2)CSC3)cc1 | inactive | inactive | > 20 | 1.5 | < 50 | – | – | – | – | –
21 | Cc1cccc(-n2nc3c(c2NC(=O)c2ccc(C(C)(C)C)cc2)CSC3)c1 | inactive | inactive | 5.9 | 2.3 | < 50 | – | – | – | – | –
22 | CC(C)(C)c1ccc(C(=O)Nc2c3c(nn2-c2cccc(Cl)c2)CSC3)cc1 | inactive | inactive | 4 | 1.6 | < 50 | 5.98 | – | 15.9 | – | Active
23 | Cc1cccc(-n2nc3c(c2NS(=O)(=O)c2ccc(C(C)(C)C)cc2)CSC3)c1 | inactive | inactive | > 20 | 2.3 | – | – | – | – | – | –
24 | CC(C)(C)c1ccc(NC(=O)Nc2c3c(nn2-c2cccc(Cl)c2)COC3)cc1 | inactive | inactive | 0.74 | 2.4 | – | – | – | – | – | –
25 | CC(C)(C)c1ccc(C(=O)Nc2c3c(nn2-c2ccc(Cl)cc2)CSC3)cc1 | inactive | inactive | 4.2 | 2.4 | < 50 | – | – | – | – | –
26 | Cc1cccc(-n2nc3c(c2NC(=O)Nc2ccc(C(C)(C)C)cc2)CSC3)c1 | inactive | inactive | 3.1 | 1.2 | < 50 | – | – | – | – | –
27 | CC(C)(C)c1ccc(C(=O)Nc2c3c(nn2-c2cccc(C(F)(F)F)c2)CSC3)cc1 | inactive | inactive | 2 | 2.4 | < 50 | – | – | – | – | –
